{"source": "PubChem BioAssay AID328", "about": "(DTP/NCI, 2004)", "test_system": "BDF1 mice, P388 leukemia ip, median survival T/C", "assay": "NCI In Vivo Anticancer Drug Screen. Data for tumor model P388 Leukemia (intraperitoneal) in B6D2F1 (BDF1) mice", "conditions": "endpoint: median survival time, higher = longer survival", "how_it_was_run": "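Antitumour effect was judged in vivo: survival in drug-treated mice, normalised to that of vehicle-dosed controls, gives the reported T/C.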", "key": {"[1]": {"conditions": "dose: 50.0 mg/kg/injection, schedule: Q01DX009 (ip), vehicle: saline with Tween-80"}, "[2]": {"conditions": "dose: 100.0 mg/kg/injection, schedule: Q01DX009 (ip), vehicle: saline with Tween-80"}, "[3]": {"conditions": "dose: 200.0 mg/kg/injection, schedule: Q01DX009 (ip), vehicle: saline with Tween-80"}, "[4]": {"conditions": "dose: 100.0 mg/kg/injection, schedule: Q01DX009 (ip), vehicle: Klucel (hydroxypropylcellulose) (HPC)"}, "[5]": {"conditions": "dose: 100.0 mg/kg/injection, schedule: Q04DX003 (ip), vehicle: Klucel (hydroxypropylcellulose) (HPC)"}, "[6]": {"conditions": "dose: 200.0 mg/kg/injection, schedule: Q01DX009 (ip), vehicle: Klucel (hydroxypropylcellulose) (HPC)"}, "[7]": {"conditions": "dose: 200.0 mg/kg/injection, schedule: Q04DX003 (ip), vehicle: Klucel (hydroxypropylcellulose) (HPC)"}, "[8]": {"conditions": "dose: 400.0 mg/kg/injection, schedule: Q01DX009 (ip), vehicle: Klucel (hydroxypropylcellulose) (HPC)"}, "[9]": {"conditions": "dose: 50.0 mg/kg/injection, schedule: Q01DX009 (ip), vehicle: Klucel (hydroxypropylcellulose) (HPC)"}}, "note": "Values joined by “and” are separate entries in the source; they are usually repeats but may differ in a detail not shown here. Identical values can stand only once. Toxic doses and inconclusive results are not listed.", "data": [{"smiles": "COc1ccc(-c2c(C)c(C)nc(Cl)c2C#N)c(OCc2ccccc2)c1OC", "values": [{"measurement": "T/C", "setting": "dose: 0.1 mg/kg/injection, schedule: Q01DX009 (ip), vehicle: Klucel (hydroxypropylcellulose) (HPC)", "result": "95 % of control"}]}, {"smiles": "CC(=O)OC1CC2CCCCC21", "note": "(stereo not given)", "values": [{"measurement": "T/C", "setting": "dose: 50.0 mg/kg/injection, schedule: Q01DX009 (ip), vehicle: other", "result": "116 % of control"}, {"measurement": "T/C", "setting": "dose: 100.0 mg/kg/injection, schedule: Q01DX009 (ip), vehicle: other", "result": "105 % of control"}, {"measurement": "T/C", "setting": "dose: 200.0 mg/kg/injection, schedule: Q01DX009 (ip), vehicle: other", "result": "100 % of control"}]}, {"smiles": "CCOC(=O)C1CC2(CCC1N)c1ccccc1-c1ccccc12", "note": "(stereo not given)", "values": [{"measurement": "T/C", "setting": "[1]", "result": "102 % of control"}, {"measurement": "T/C", "setting": "[2]", "result": "99 % of control"}, {"measurement": "T/C", "setting": "[3]", "result": "108 % of control"}]}, {"smiles": "Nc1cc2c(c[n+](Cc3ccccc3)c3ccccc23)c2ccccc12", "values": [{"measurement": "T/C", "setting": "dose: 3.13 mg/kg/injection, schedule: Q04DX003 (ip), vehicle: other", "result": "98 % of control"}]}, {"smiles": "CCC(=O)Nc1ccc(C)cc1C", "values": [{"measurement": "T/C", "setting": "[4]", "result": "104 % of control"}, {"measurement": "T/C", "setting": "[5]", "result": "104 % of control"}, {"measurement": "T/C", "setting": "[6]", "result": "100 % of control"}, {"measurement": "T/C", "setting": "[7]", "result": "90 % of control"}, {"measurement": "T/C", "setting": "[8]", "result": "95 % of control"}, {"measurement": "T/C", "setting": "dose: 400.0 mg/kg/injection, schedule: Q04DX003 (ip), vehicle: Klucel (hydroxypropylcellulose) (HPC)", "result": "90 % of control"}]}, {"smiles": "CCOc1c([N+](=O)[O-])cc([N+](=O)[O-])c2ccccc12", "values": [{"measurement": "T/C", "setting": "dose: 25.0 mg/kg/injection, schedule: Q01DX009 (ip), vehicle: saline with Tween-80", "result": "96 % of control"}, {"measurement": "T/C", "setting": "[1]", "result": "96 % of control"}, {"measurement": "T/C", "setting": "[2]", "result": "93 % of control"}]}, {"smiles": "CCOC(=O)c1c(C)c2c(n1C)CCc1cn[nH]c1-2", "values": [{"measurement": "T/C", "setting": "[9]", "result": "103 % of control"}, {"measurement": "T/C", "setting": "[4]", "result": "120 % of control"}, {"measurement": "T/C", "setting": "[6]", "result": "106 % of control"}]}, {"smiles": "CC(C)(C)/C=N/Nc1ccc([N+](=O)[O-])cc1[N+](=O)[O-]", "values": [{"measurement": "T/C", "setting": "dose: 50.0 mg/kg/injection, schedule: Q04DX003 (ip), vehicle: Klucel (hydroxypropylcellulose) (HPC)", "result": "104 % of control"}, {"measurement": "T/C", "setting": "[4]", "result": "100 % of control"}, {"measurement": "T/C", "setting": "[5]", "result": "104 % of control"}, {"measurement": "T/C", "setting": "[6]", "result": "100 % of control"}, {"measurement": "T/C", "setting": "[7]", "result": "109 % of control"}, {"measurement": "T/C", "setting": "[8]", "result": "95 % of control"}]}, {"smiles": "Nc1nc(-c2ccccc2N=NN2CCN(N=Nc3ccccc3-c3nc(N)c4ccccc4n3)CC2)nc2ccccc12", "values": [{"measurement": "T/C", "setting": "dose: 0.78 mg/kg/injection, schedule: Q01DX009 (ip), vehicle: Klucel (hydroxypropylcellulose) (HPC)", "result": "100 % of control"}, {"measurement": "T/C", "setting": "dose: 1.56 mg/kg/injection, schedule: Q01DX009 (ip), vehicle: Klucel (hydroxypropylcellulose) (HPC)", "result": "102 % of control"}, {"measurement": "T/C", "setting": "dose: 3.13 mg/kg/injection, schedule: Q01DX009 (ip), vehicle: Klucel (hydroxypropylcellulose) (HPC)", "result": "111 % of control"}, {"measurement": "T/C", "setting": "dose: 6.25 mg/kg/injection, schedule: Q01DX009 (ip), vehicle: Klucel (hydroxypropylcellulose) (HPC)", "result": "107 % of control and 110 % of control"}, {"measurement": "T/C", "setting": "dose: 12.5 mg/kg/injection, schedule: Q01DX009 (ip), vehicle: Klucel (hydroxypropylcellulose) (HPC)", "result": "102 % of control"}, {"measurement": "T/C", "setting": "dose: 25.0 mg/kg/injection, schedule: Q01DX009 (ip), vehicle: Klucel (hydroxypropylcellulose) (HPC)", "result": "108 % of control"}, {"measurement": "T/C", "setting": "[9]", "result": "105 % of control"}]}, {"smiles": "COc1cccc2c1C(=O)c1c(O)c3c(c(O)c1C2=O)C[C@@](O)(C(C)=O)C[C@@H]3OC1CC(NC(=O)c2ccncc2)C(O)C(C)O1", "note": "(stereo not given in full)", "values": [{"measurement": "T/C", "setting": "dose: 3.13 mg/kg/injection, schedule: Q01DX009 (ip), vehicle: water", "result": "150 % of control"}, {"measurement": "T/C", "setting": "dose: 6.25 mg/kg/injection, schedule: Q01DX009 (ip), vehicle: water", "result": "154 % of control"}, {"measurement": "T/C", "setting": "dose: 12.5 mg/kg/injection, schedule: Q01DX009 (ip), vehicle: water", "result": "159 % of control"}]}, {"smiles": "CCCCC(C)C(=O)CC(SCC)c1ccc(Cl)c(Cl)c1", "note": "(stereo not given)", "values": [{"measurement": "T/C", "setting": "[1]", "result": "99 % of control"}, {"measurement": "T/C", "setting": "[2]", "result": "99 % of control"}, {"measurement": "T/C", "setting": "[3]", "result": "96 % of control"}]}, {"smiles": "C[N+](C)(C)Cc1ccccc1/C(=N\\O)c1ccccc1", "values": [{"measurement": "T/C", "setting": "dose: 5.0 mg/kg/injection, schedule: Q01DX009 (ip), vehicle: saline", "result": "109 % of control"}, {"measurement": "T/C", "setting": "dose: 10.0 mg/kg/injection, schedule: Q01DX009 (ip), vehicle: saline", "result": "91 % of control"}]}, {"smiles": "NC(=O)/C=C/C(=O)c1c(Cl)cccc1Cl", "values": [{"measurement": "T/C", "setting": "dose: 1.56 mg/kg/injection, schedule: Q01DX009 (ip), vehicle: saline with Tween-80", "result": "109 % of control and 115 % of control"}, {"measurement": "T/C", "setting": "dose: 3.13 mg/kg/injection, schedule: Q01DX009 (ip), vehicle: saline with Tween-80", "result": "118 % of control"}, {"measurement": "T/C", "setting": "dose: 6.25 mg/kg/injection, schedule: Q01DX009 (ip), vehicle: saline with Tween-80", "result": "123 % of control and 124 % of control"}, {"measurement": "T/C", "setting": "dose: 12.5 mg/kg/injection, schedule: Q01DX009 (ip), vehicle: saline with Tween-80", "result": "95 % of control"}]}, {"smiles": "COc1ccc(/C=N/n2c(=O)[nH]nc(C)c2=O)c(OC)c1OC", "values": [{"measurement": "T/C", "setting": "[2]", "result": "100 % of control"}, {"measurement": "T/C", "setting": "[3]", "result": "122 % of control"}, {"measurement": "T/C", "setting": "dose: 400.0 mg/kg/injection, schedule: Q01DX009 (ip), vehicle: saline with Tween-80", "result": "95 % of control"}]}, {"smiles": "CCOC(=O)C(C(=O)OCC)C(=O)c1cc(-c2ccc(Cl)c(Cl)c2)nc2c(Cl)cc(Cl)cc12", "values": [{"measurement": "T/C", "setting": "[9]", "result": "100 % of control"}, {"measurement": "T/C", "setting": "[6]", "result": "91 % of control"}]}]}
